Measurements taken from US20110104301A1, “METHODS OF REDUCING PAIN AND INFLAMMATION” (Georgetown University, A Congressionally Chartered …, priority 2008, published 2011).

Tests used:
TRPA1 [1] = molecular target: T1, TRPA1 (Rattus norvegicus, UniProt Q6RI86); assay: Whole-cell patch-clamp of TRPA1-expressing HEK293 cells; type: cell-based; conditions: for Response relative to the full agonist AITC: AITC 1 mM
T1 construct: expressed in transfected cells; host or cells: HEK 293F
Experimental: (§1) Electrophysiology. […] Whole-cell and single-channel patch-clamp recordings were performed by using an EPC8 amplifier (HEKA Electronics). For whole-cell and excised patch recordings the bath solution contained 140 mMNaCl, 4 mMKCl, 1 mMMgCl2, 1.2 mMCaCl2, 10 mMHepes, 10 mM glucose, pH 7.3. For cell-attached experiments, NaCl was replaced with KCl in the bath solution. […] For neuronal recording NaCl was replaced with K-gluconate (plus 1 mMATP, 0.2 mM GTP). Solutions were applied via a gravity-fed system. […] Voltage-dependent properties were measured as described in Matt and Ahern, J. Physiol. […] The baseline currents under control conditions were subtracted. For cell-attached experiments, peak amplitudes were measured from all-points histograms, and open probability was measured as NPo>750 ms. Defolliculated Xenopus laevis oocytes were injected with ≈10 ng of hTRPA1 (gift of Ardem Patapoutian, The Scripps Research Institute, La Jolla, Calif.).
Volatile General Anesthetics and Chemicals. Saturated stock solutions of volatile GAs were prepared in gas-tight bottles by dissolving excess anesthetic agents in bath solutions overnight. From these stock solutions fresh dilutions were made up every 40-60 min. Concentrations of GAs in the bath solutions were verified by using a modified head-space gas chromatography method. […] Alcohols with <6 carbons were dissolved directly into extracellular solution, and alcohols containing 6 carbons or more were dissolved in DMSO and then diluted into extracellular solutions that were sonicated for 20 min. All other drugs were prepared as stock solutions in DMSO or ethanol and diluted into physiological solution before experiments.

TRPM8 = molecular target: T2, TRPM8 (Rattus norvegicus, UniProt Q8R455); assay: Whole-cell patch-clamp of TRPM8-expressing HEK293 cells; type: cell-based; conditions: 100 μM
T2 construct: expressed in transfected cells; host or cells: HEK 293F
T2 sequence (Q8R455 whole entry): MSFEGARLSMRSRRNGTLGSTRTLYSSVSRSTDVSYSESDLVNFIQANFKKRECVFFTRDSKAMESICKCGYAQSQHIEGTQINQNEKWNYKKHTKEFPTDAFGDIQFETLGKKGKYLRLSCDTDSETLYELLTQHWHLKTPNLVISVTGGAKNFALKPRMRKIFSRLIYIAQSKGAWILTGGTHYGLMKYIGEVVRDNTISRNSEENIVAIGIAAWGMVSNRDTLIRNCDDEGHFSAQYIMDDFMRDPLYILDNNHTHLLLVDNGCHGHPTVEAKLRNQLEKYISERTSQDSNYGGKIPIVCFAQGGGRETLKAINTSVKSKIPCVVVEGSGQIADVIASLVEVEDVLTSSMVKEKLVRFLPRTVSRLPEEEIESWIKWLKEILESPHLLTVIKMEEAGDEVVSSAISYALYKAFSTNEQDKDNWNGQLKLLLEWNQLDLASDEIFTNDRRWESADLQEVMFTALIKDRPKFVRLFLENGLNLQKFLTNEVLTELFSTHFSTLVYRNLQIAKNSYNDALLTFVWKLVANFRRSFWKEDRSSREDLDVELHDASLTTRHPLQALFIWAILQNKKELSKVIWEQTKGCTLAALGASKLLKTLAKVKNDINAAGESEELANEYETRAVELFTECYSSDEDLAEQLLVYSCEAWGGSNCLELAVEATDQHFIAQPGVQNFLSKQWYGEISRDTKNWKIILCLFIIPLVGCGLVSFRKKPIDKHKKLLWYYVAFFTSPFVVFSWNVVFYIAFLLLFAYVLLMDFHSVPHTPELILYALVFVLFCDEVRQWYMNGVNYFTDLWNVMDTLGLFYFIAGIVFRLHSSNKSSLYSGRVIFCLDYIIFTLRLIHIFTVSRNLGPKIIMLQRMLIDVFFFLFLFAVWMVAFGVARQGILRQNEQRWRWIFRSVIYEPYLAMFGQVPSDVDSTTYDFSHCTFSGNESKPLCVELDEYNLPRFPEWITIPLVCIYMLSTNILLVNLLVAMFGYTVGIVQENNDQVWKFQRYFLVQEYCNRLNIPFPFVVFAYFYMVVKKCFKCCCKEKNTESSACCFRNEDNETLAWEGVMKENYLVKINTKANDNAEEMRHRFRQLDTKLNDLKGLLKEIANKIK
Experimental: as §1

TRPA1 [2] = molecular target: T1, TRPA1; assay: Single-channel recordings of TRPA1 (outside-out / cell-attached patches); type: cell-based
Experimental: (§2) Electrophysiology. HEK 293F cells were transfected with rat TRPV1, TRPA1, and TRPM8 (gift of David Julius, University of California, San Francisco). Dorsal root ganglia were cultured from adult mice (C57B16/J wild type and TRPV1-null, and mixed B6/129 background TRPA1-null) in Neurobasal +2% B-27 medium (Invitrogen), 0.1% L-glutamine and 1% penicillin/streptomycin. Whole-cell and single-channel patch-clamp recordings were performed by using an EPC8 amplifier (HEKA Electronics). For whole-cell and excised patch recordings the bath solution contained 140 mMNaCl, 4 mMKCl, 1 mMMgCl2, 1.2 mMCaCl2, 10 mMHepes, 10 mM glucose, pH 7.3. For cell-attached experiments, NaCl was replaced with KCl in the bath solution. The pipette solution contained 140 mM NaCl or KCl, 10 mM Hepes, 5 mM EGTA, pH 7.3. For neuronal recording NaCl was replaced with K-gluconate (plus 1 mMATP, 0.2 mM GTP). Solutions were applied via a gravity-fed system. Separate outlets were used to apply capsaicin and AITC solutions to avoid contamination. Voltage-dependent properties were measured as described in Matt and Ahern, J. Physiol. 585:469-482 (2007). Current-voltage measurements comprised a 200-ms ramp from −150 mV to +200 mV. The baseline currents under control conditions were subtracted. For cell-attached experiments, peak amplitudes were measured from all-points histograms, and open probability was measured as NPo>750 ms. Defolliculated Xenopus laevis oocytes were injected with ≈10 ng of hTRPA1 (gift of Ardem Patapoutian, The Scripps Research Institute, La Jolla, Calif.). Oocytes were placed in a Perspex chamber and continuously superfused (5 ml min^−1) with Ca^2+-free solution containing 100 mM NaCl, 2.5 mM KCl, 5 mM Hepes, 1 mM MgC12 and titrated to pH 7.3 with ˜5 mM NaOH.

[3] = test system: AITC-sensitive DRG neurons; assay: Voltage- and current-clamp of DRG sensory neurons; type: cell-based, mouse; conditions: 100 μM
Experimental: as §2

DRG neurons = assay: Ca2+ imaging in DRG neurons from wild-type mice; type: cell-based, mouse; conditions: propofol 100 μM
Experimental: (§3) Ca^2+ Imaging. Neurons were loaded with 1 μM Fluo4-AM (Molecular Probes) for 20 min and washed for a further 10-20 min before recording. The dye was excited at 488±15 nm. Emitted fluorescence was filtered with a 535±25 nm bandpass filter, captured by a SPOT RT digital camera (Diagnostic Instruments) and read into a computer. Analysis was performed offline by using Simple PCI software (Compix Inc.).

[4] = test system: DRG neurons from TRPA1-null mice; assay: Ca2+ imaging in DRG neurons from TRPA1-null mice; type: cell-based, mouse; conditions: desflurane n=125, propofol n=120
Experimental: as §3

mice [5] = assay: Nocifensive behavior after topical application to the nasal epithelium; type: in vivo, mouse
Experimental: (§4) Behavioral Experiments and Neurogenic Inflammation. Animal experiments were performed according to National Institutes of Health and institutional guidelines. […] Nocifensive behavior (nose wiping in sawdust bedding) was recorded for 2 min with a video camera and the duration was subsequently measured by a blinded observer. […] Electromyographic (EMG) activity was recorded via platinum electrodes from the semitendinosus muscle in mice anesthetized with urethane (1.3 g/kg) as described in Ando and Watanabe, Br J. Anaesth. […] The EMG signal was recorded by using a low-pass cutoff frequency of 200 Hz and integrated offline by using a 100-ms time window. […] Ear thickness was recorded by using an engineer's micrometer (Mitutoyo Corp.) before mustard-oil application and thereafter every 15 min for 60 min of anesthesia and 60 min of recovery.

mice [6] = assay: Flexor reflex response (EMG of semitendinosus muscle) after femoral artery injection; type: in vivo, mouse; conditions: propofol 500 μM, capsaicin 50 μM
Experimental: as §4

TRPV1 = TRPV1 (Rattus norvegicus, UniProt O35433); assay: Whole-cell patch-clamp of TRPV1-expressing HEK293 cells; type: cell-based; parameters: expressed in transfected cells; host or cells: HEK 293F (Invitrogen), co-transfected with GFP cDNA; conditions: 100 μM
Sequence of TRPV1 (O35433 whole entry): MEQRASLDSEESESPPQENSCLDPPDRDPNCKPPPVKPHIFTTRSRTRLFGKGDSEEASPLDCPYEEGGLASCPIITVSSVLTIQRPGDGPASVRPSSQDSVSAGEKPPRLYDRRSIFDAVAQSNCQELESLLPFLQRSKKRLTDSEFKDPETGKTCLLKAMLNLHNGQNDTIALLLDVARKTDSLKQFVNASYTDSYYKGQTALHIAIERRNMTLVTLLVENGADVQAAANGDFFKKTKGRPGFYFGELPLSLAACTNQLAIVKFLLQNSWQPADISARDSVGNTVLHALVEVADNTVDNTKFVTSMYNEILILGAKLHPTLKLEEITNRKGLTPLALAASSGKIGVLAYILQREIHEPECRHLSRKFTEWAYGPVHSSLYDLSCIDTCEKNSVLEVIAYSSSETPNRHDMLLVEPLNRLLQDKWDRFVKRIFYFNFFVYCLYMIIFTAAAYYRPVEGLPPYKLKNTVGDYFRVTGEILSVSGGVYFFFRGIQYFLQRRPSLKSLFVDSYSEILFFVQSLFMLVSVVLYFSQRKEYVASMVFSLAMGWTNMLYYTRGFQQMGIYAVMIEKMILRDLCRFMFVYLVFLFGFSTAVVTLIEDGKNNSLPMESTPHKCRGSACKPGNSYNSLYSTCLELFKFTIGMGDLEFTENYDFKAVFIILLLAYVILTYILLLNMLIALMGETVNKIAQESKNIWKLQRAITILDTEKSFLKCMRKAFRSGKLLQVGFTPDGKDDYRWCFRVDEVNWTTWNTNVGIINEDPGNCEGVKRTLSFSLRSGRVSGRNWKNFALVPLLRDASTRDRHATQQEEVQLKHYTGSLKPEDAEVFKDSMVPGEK
Experimental: as §1
HEK cell and sensory neuron electrophysiology. […] Cell cultures were maintained at 37° C. with 5% CO2. Cells were transfected with rat TRPV 1 (gift of David Julius), and GFP cDNA using Lipofectamine™ Transfection Reagent (Invitrogen) and used 24-48 h after transfection. Nodose ganglia were obtained from adult mice (C57B16/J and TRPV1-null), cut, digested with collagenase, and cultured in Neurobasal +2% B-27 medium (Invitrogen), 0.1% L-glutamine and 1% penicillin/streptomycin on poly-D lysine-coated glass coverslips at 37° C. in 5% CO2. Neurons were used within 24-36 hr of culture. Whole-cell and single-channel patch clamp recordings were performed using an EPC8 amplifier (HEKA). The current signal was low-pass filtered at 1-3 kHz and sampled at 4 kHz. Currents were further filtered for display purposes. For whole-cell and excised patch recordings the bath solution contained (in mM): 140 NaCl, 4 KCl, 1 MgCl2, 1 EGTA, 10 HEPES, 10 glucose pH 7.3 (290 mOsm). The pipette solution contained (in mM): 140 CsC1, 10 NaCl, 10 HEPES, 5 EGTA, 2 Mg ATP and 0.03 GTP, pH 7.3. The peak amplitudes measured either during the prepulse or the tail current (within 1 ms) were plotted as a function of the test potential and normalized to the maximal current obtained from the following Boltzmann function: […]

T1 sequence (Q6RI86 whole entry): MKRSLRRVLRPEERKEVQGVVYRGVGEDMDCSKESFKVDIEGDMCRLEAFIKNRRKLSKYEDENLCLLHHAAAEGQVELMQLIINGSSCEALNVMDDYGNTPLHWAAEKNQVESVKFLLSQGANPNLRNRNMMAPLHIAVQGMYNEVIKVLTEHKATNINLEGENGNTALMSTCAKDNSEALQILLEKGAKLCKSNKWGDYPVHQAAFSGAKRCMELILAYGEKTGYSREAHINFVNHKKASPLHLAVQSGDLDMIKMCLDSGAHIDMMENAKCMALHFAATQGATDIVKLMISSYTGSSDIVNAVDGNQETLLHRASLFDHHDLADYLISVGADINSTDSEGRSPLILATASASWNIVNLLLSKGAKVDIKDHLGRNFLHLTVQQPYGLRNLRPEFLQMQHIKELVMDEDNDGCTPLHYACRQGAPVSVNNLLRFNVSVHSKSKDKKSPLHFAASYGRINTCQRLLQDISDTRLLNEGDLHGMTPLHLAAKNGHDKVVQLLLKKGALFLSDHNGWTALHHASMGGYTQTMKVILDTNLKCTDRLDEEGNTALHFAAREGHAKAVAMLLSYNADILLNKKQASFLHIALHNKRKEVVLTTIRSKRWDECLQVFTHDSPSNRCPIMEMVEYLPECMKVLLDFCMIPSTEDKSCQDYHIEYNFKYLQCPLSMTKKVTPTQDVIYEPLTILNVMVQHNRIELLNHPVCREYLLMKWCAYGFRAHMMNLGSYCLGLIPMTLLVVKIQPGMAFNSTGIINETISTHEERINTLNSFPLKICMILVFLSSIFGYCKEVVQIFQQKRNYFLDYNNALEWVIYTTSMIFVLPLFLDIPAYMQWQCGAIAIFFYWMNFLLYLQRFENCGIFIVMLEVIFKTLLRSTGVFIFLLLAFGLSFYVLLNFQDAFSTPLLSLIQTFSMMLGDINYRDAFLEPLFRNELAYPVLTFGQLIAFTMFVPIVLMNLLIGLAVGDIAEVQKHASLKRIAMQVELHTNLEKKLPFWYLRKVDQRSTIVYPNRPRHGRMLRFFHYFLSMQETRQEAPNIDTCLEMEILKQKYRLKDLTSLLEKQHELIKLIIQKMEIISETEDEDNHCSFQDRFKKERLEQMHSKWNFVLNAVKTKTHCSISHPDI

## CC(C)c1cccc(C(C)C)c1O [propofol]
TRPA1 [1]; 100 μM, membrane potential −50 mV
  Activation of TRPA1 by i.v. GAs: robust activation
TRPA1 [1]; FIG. 2D
  Concentration range of TRPA1 activation: 1 to 100 µM
TRPA1 [1]; at +200 my
  Response relative to the full agonist AITC: ~38%
TRPA1 [1]; at −150 mV
  Response relative to the full agonist AITC: ≈ 8%
TRPA1 [1]; propofol 100 μM + octanol 1.8 mM
  Co-application with octanol at TRPA1: additive response
TRPM8; n=5-6
  Change in V1/2 of TRPM8 (ΔV1/2, increase): 1.7 mV
TRPM8; −50 mV
  Effect of i.v. GAs on TRPM8 channels: without effect
TRPA1 [2]; 100 μM, outside-out patch, Vm +40 mV, decrease from 108 pS
  TRPA1 unitary conductance in presence of propofol: 94 pS
TRPA1 [2]; cell-free patches
  Single TRPA1 channel activity: increased TRPA1 activity and reduced the unitary conductance
[3]; n=6
  Inward currents in AITC-sensitive DRG neurons: inward currents were also observed
[3]; elicits action potentials
  Membrane potential under current clamp: depolarized
DRG neurons
  Cells with dual sensitivity to propofol and AITC: ≈ 30%
[4]
  Ca2+ responses in neurons from TRPA1-null mice: no responses
Mice [5]; TRPA1+/− littermates, propofol 50% topical
  Duration of nocifensive response: ≈ 35 s
Mice [5]; propofol 50% topical
  Nocifensive behavior in TRPA1-null mice: completely absent
Mice [5]; wild-type mice, propofol 50% topical to nasal epithelium, 2-min period
  Duration of pain-related (nocifensive) behavior: ≈ 40 s
Mice [6]
  Flexor reflex muscle activity in TRPA1+/− mice: evoked reflex muscle activity
  Flexor reflex muscle activity in TRPA1-null mice: no responses
TRPV1; n=4-5
  Reduction in half-maximal voltage (V1/2) for TRPV1 activation: 10.5 mV
TRPV1; −50 mV
  Effect of i.v. GAs on TRPV1 channels: without effect
